Source: PubChem BioAssay (NCI)
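GI50 is the concentration that inhibits growth by half. TGI denotes the concentration required for complete inhibition of growth.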

Experiments:
Test in all cases: NCI-60 cell line screen, 384-well format
MDA-MB-435 melanoma = system: MDA-MB-435 melanoma
SK-MEL-2 melanoma = system: SK-MEL-2 melanoma
SK-MEL-5 melanoma = system: SK-MEL-5 melanoma
DU-145 prostate = system: DU-145 prostate
OVCAR-8 ovarian = system: OVCAR-8 ovarian
PC-3 prostate = system: PC-3 prostate
SW-620 colon = system: SW-620 colon
NCI-H23 lung = system: NCI-H23 lung
M14 melanoma = system: M14 melanoma
ACHN renal = system: ACHN renal
NCI-H322M lung = system: NCI-H322M lung
COLO 205 colon = system: COLO 205 colon
MDA-MB-231 breast = system: MDA-MB-231 breast
CAKI-1 renal = system: CAKI-1 renal
HCC-2998 colon = system: HCC-2998 colon
HOP-62 NSCLC = system: HOP-62 NSCLC
RPMI-8226 leukemia = system: RPMI-8226 leukemia
IGROV1 ovarian = system: IGROV1 ovarian
KM12 colon = system: KM12 colon
BT-549 breast = system: BT-549 breast
A549 NSCLC = system: A549 NSCLC
T-47D breast = system: T-47D breast
OVCAR-4 ovarian = system: OVCAR-4 ovarian
SK-MEL-28 melanoma = system: SK-MEL-28 melanoma
SF-268 CNS = system: SF-268 CNS
CCRF-CEM leukemia = system: CCRF-CEM leukemia
SN12C renal = system: SN12C renal
NCI-H522 lung = system: NCI-H522 lung
SNB-19 CNS = system: SNB-19 CNS
SF-295 CNS = system: SF-295 CNS
MALME-3M melanoma = system: MALME-3M melanoma
NCI-H460 NSCLC = system: NCI-H460 NSCLC
HOP-92 NSCLC = system: HOP-92 NSCLC
HCT-15 colon = system: HCT-15 colon
UO-31 renal = system: UO-31 renal
HCT-116 colon = system: HCT-116 colon
U251 glioblastoma = system: U251 glioblastoma
SK-OV-3 ovarian = system: SK-OV-3 ovarian
OVCAR-5 ovarian = system: OVCAR-5 ovarian
786-0 renal = system: 786-0 renal
NCI/ADR-RES ovarian = system: NCI/ADR-RES ovarian
A498 renal = system: A498 renal
SR leukemia = system: SR leukemia
NCI-H226 lung = system: NCI-H226 lung
TK-10 renal = system: TK-10 renal
UACC-62 melanoma = system: UACC-62 melanoma
RXF 393 renal = system: RXF 393 renal
SF-539 CNS = system: SF-539 CNS
MCF7 breast = system: MCF7 breast
HT29 colon = system: HT29 colon
OVCAR-3 ovarian = system: OVCAR-3 ovarian
LOX IMVI melanoma = system: LOX IMVI melanoma
HL-60(TB) leukemia = system: HL-60(TB) leukemia
MDA-MB-468 breast = system: MDA-MB-468 breast
UACC-257 melanoma = system: UACC-257 melanoma
K-562 leukemia = system: K-562 leukemia
MOLT-4 leukemia = system: MOLT-4 leukemia

Structure (SMILES): Cc1c(S(C)(=O)=O)c(-c2cc(F)cc(N3CCN(c4ccc(NS(=O)(=O)c5ccc(N[C@H](CCN6CCC(C(=O)OCCCP(=O)(O)O)CC6)CSc6ccccc6)c(S(=O)(=O)C(F)(F)F)c5)cc4)CC3)c2)c(-c2ccc(Cl)cc2)n1C(C)C
- GI50 (MDA-MB-435 melanoma): > 100 µM
- TGI (MDA-MB-435 melanoma): > 100 µM
- GI50 (SK-MEL-2 melanoma): > 100 µM
- TGI (SK-MEL-2 melanoma): > 100 µM
- GI50 (SK-MEL-5 melanoma): > 100 µM
- TGI (SK-MEL-5 melanoma): > 100 µM
- GI50 (DU-145 prostate): > 100 µM
- TGI (DU-145 prostate): > 100 µM
- GI50 (OVCAR-8 ovarian): > 100 µM
- TGI (OVCAR-8 ovarian): > 100 µM
- GI50 (PC-3 prostate): > 100 µM
- TGI (PC-3 prostate): > 100 µM
- GI50 (SW-620 colon): > 100 µM
- TGI (SW-620 colon): > 100 µM
- GI50 (NCI-H23 lung): > 100 µM
- TGI (NCI-H23 lung): > 100 µM
- GI50 (M14 melanoma): > 100 µM
- TGI (M14 melanoma): > 100 µM
- GI50 (ACHN renal): > 100 µM
- TGI (ACHN renal): > 100 µM
- GI50 (NCI-H322M lung): > 100 µM
- TGI (NCI-H322M lung): > 100 µM
- GI50 (COLO 205 colon): > 100 µM
- TGI (COLO 205 colon): > 100 µM
- GI50 (MDA-MB-231 breast): 0.945 µM
- TGI (MDA-MB-231 breast): 15 µM
- GI50 (CAKI-1 renal): > 100 µM
- TGI (CAKI-1 renal): > 100 µM
- GI50 (HCC-2998 colon): 0.425 µM
- TGI (HCC-2998 colon): 15.6 µM
- GI50 (HOP-62 NSCLC): > 100 µM
- TGI (HOP-62 NSCLC): > 100 µM
- GI50 (RPMI-8226 leukemia): 0.0131 µM
- TGI (RPMI-8226 leukemia): 0.0361 µM
- GI50 (IGROV1 ovarian): > 100 µM
- TGI (IGROV1 ovarian): > 100 µM
- GI50 (KM12 colon): > 100 µM
- TGI (KM12 colon): > 100 µM
- GI50 (BT-549 breast): > 100 µM
- TGI (BT-549 breast): > 100 µM
- GI50 (A549 NSCLC): > 100 µM
- TGI (A549 NSCLC): > 100 µM
- GI50 (T-47D breast): > 100 µM
- TGI (T-47D breast): > 100 µM
- GI50 (OVCAR-4 ovarian): > 100 µM
- TGI (OVCAR-4 ovarian): > 100 µM
- GI50 (SK-MEL-28 melanoma): > 100 µM
- TGI (SK-MEL-28 melanoma): > 100 µM
- GI50 (SF-268 CNS): > 100 µM
- TGI (SF-268 CNS): > 100 µM
- GI50 (CCRF-CEM leukemia): 0.0412 µM
- TGI (CCRF-CEM leukemia): 0.178 µM
- GI50 (SN12C renal): > 100 µM
- TGI (SN12C renal): > 100 µM
- GI50 (NCI-H522 lung): > 100 µM
- TGI (NCI-H522 lung): > 100 µM
- GI50 (SNB-19 CNS): > 100 µM
- TGI (SNB-19 CNS): > 100 µM
- GI50 (SF-295 CNS): > 100 µM
- TGI (SF-295 CNS): > 100 µM
- GI50 (MALME-3M melanoma): > 100 µM
- TGI (MALME-3M melanoma): > 100 µM
- GI50 (NCI-H460 NSCLC): > 100 µM
- TGI (NCI-H460 NSCLC): > 100 µM
- GI50 (HOP-92 NSCLC): 0.0429 µM
- TGI (HOP-92 NSCLC): 0.739 µM
- GI50 (HCT-15 colon): > 100 µM
- TGI (HCT-15 colon): > 100 µM
- GI50 (UO-31 renal): > 100 µM
- TGI (UO-31 renal): > 100 µM
- GI50 (HCT-116 colon): > 100 µM
- TGI (HCT-116 colon): > 100 µM
- GI50 (U251 glioblastoma): > 100 µM
- TGI (U251 glioblastoma): > 100 µM
- GI50 (SK-OV-3 ovarian): > 100 µM
- TGI (SK-OV-3 ovarian): > 100 µM
- GI50 (OVCAR-5 ovarian): > 100 µM
- TGI (OVCAR-5 ovarian): > 100 µM
- GI50 ([…]-0 renal): > 100 µM
- TGI (786-0 renal): > 100 µM
- GI50 (NCI/ADR-RES ovarian): > 100 µM
- TGI (NCI/ADR-RES ovarian): > 100 µM
- GI50 (A498 renal): > 100 µM
- TGI (A498 renal): > 100 µM
- GI50 (SR leukemia): 0.892 µM
- TGI (SR leukemia): > 100 µM
- GI50 (NCI-H226 lung): > 100 µM
- TGI (NCI-H226 lung): > 100 µM
- GI50 (TK-10 renal): > 100 µM
- TGI (TK-10 renal): > 100 µM
- GI50 (UACC-62 melanoma): > 100 µM
- TGI (UACC-62 melanoma): > 100 µM
- GI50 (RXF 393 renal): 0.12 µM
- TGI (RXF 393 renal): 30.3 µM
- GI50 (SF-539 CNS): > 100 µM
- TGI (SF-539 CNS): > 100 µM
- GI50 (MCF7 breast): > 100 µM
- TGI (MCF7 breast): > 100 µM
- GI50 (HT29 colon): > 100 µM
- TGI (HT29 colon): > 100 µM
- GI50 (OVCAR-3 ovarian): > 100 µM
- TGI (OVCAR-3 ovarian): > 100 µM
- GI50 (LOX IMVI melanoma): > 100 µM
- TGI (LOX IMVI melanoma): > 100 µM
- GI50 (HL-60(TB) leukemia): > 100 µM
- TGI (HL-60(TB) leukemia): > 100 µM
- GI50 (MDA-MB-468 breast): 73.1 µM
- TGI (MDA-MB-468 breast): > 100 µM
- GI50 (UACC-257 melanoma): > 100 µM
- TGI (UACC-257 melanoma): > 100 µM
- GI50 (K-562 leukemia): > 100 µM
- TGI (K-562 leukemia): > 100 µM
- GI50 (MOLT-4 leukemia): 0.0152 µM
- TGI (MOLT-4 leukemia): 0.0362 µM
